# Source: PMC12495412, “Coumarin/nitrogen-bearing heterocyclic hybrid-loaded electrospun PMMA/PVP nanofibrous scaffolds for accelerating topical wound healing rates: synthesis and in vitro bio-evaluation” (RSC Advances, 2025)
# Marks after values point to notes of the source that are not given here.
# What was measured:
# Bacillus cereus [1] = assay: Agar-well diffusion of formulations; assay type: cell-based; settings: 50 μL per 5 mm well, 37 °C
# Method: (§1) The antimicrobial qualities of formulations were evaluated in this study using a variety of techniques. The formulations including 8 PMMA and 2 PVP, which contained varying doses of drug A (0.5% = T1, 1% = T2, 3% = T3, and 5% = T4) or drug B (0.5% = T5, 1% = T6, 3% = T7, and 5% = T8), as well as a combination of 2.5% of drug A and 2.5% of drug B (T9) were assessed. The tested human pathogens were cultivated in a nutritional broth medium containing 0.5% peptone, 0.3% yeast extract, 0.2% beef extract, 0.1% glucose, and 0.5% NaCl in accordance with 0.5 McFarland turbidity criteria.[25] To carry out the agar-well diffusion analysis, microbial cultures (100 μL) were spread on nutrient agar plates using sterile cotton swabs. After drilling each well with a sterile cork-borer of 5 mm in diameter, 50 μL of the tested formulations and the control (composed of 8 PMMA and 2 PVP) were loaded. Agar plates were thereafter left to incubate at 37 °C for an entire day. The inhibitory zone that surrounds each well was measured in millimeters (mm) using a ruler.[26]
# Bacillus subtilis [2] = assay: Agar-well diffusion of formulations; assay type: cell-based; settings: 50 μL per 5 mm well, 37 °C
# Method: as §1
# Candida albicans [3] = assay: Agar-well diffusion of formulations; assay type: cell-based; settings: 50 μL per 5 mm well, 37 °C
# Method: as §1
# Candida glabrata [4] = assay: Agar-well diffusion of formulations; assay type: cell-based; settings: 50 μL per 5 mm well, 37 °C
# Method: as §1
# Candida krusei [5] = assay: Agar-well diffusion of formulations; assay type: cell-based; settings: 50 μL per 5 mm well, 37 °C
# Method: as §1
# Candida parapsilosis [6] = assay: Agar-well diffusion of formulations; assay type: cell-based; settings: 50 μL per 5 mm well, 37 °C
# Method: as §1
# Escherichia coli [7] = assay: Agar-well diffusion of formulations; assay type: cell-based; settings: 50 μL per 5 mm well, 37 °C
# Method: as §1
# Klebsiella pneumoniae [8] = assay: Agar-well diffusion of formulations; assay type: cell-based; settings: 50 μL per 5 mm well, 37 °C
# Method: as §1
# Pseudomonas aeruginosa [9] = assay: Agar-well diffusion of formulations; assay type: cell-based; settings: 50 μL per 5 mm well, 37 °C
# Method: as §1
# Salmonella paratyphi [10] = assay: Agar-well diffusion of formulations; assay type: cell-based; settings: 50 μL per 5 mm well, 37 °C
# Method: as §1
# Staphylococcus aureus [11] = assay: Agar-well diffusion of formulations; assay type: cell-based; settings: 50 μL per 5 mm well, 37 °C
# Method: as §1
# [12] = test system: Staphylococcus epidermidis; assay: Agar-well diffusion of formulations; assay type: cell-based; settings: 50 μL per 5 mm well, 37 °C
# Method: as §1
# [13] = test system: multidrug-resistant human pathogens; assay: Agar-well diffusion of formulations, whole panel; assay type: cell-based; settings: all human pathogens investigated
# Method: as §1
# Bacillus cereus [14] = assay: Biofilm inhibition test (spectrophotometric); assay type: cell-based; settings: 24 h, 37 °C, OD vs untreated
# Method: (§2) Additionally, a spectrophotometric antibiofilm assay was utilized to determine whether the evaluated formulations might inhibit the growth of pathogens. Fresh nutritional broth was inoculated with each pathogen separately, and this mixture was then incubated at 37 °C at 200 rpm. The optical density (OD) at 600 nm was measured over a 6 h incubation period, allowing for an estimation of the starting microbe's exponential phase (3 × 10^7 CFU mL^−1). To produce treated cultures, 900 μL of planktonic cultures were collected aseptically with 100 μL of each formulation. Furthermore, untreated (formula-free) cultures of pathogens were grown as controls. The cultures were then incubated for 24 hours at 200 rpm and 37 °C. Through spectroscopic evaluation of microbial turbidity, the inhibitory effects of the examined formulations were determined.[27] By comparing the OD of the treated sample with the matching controls, anti-biofilm percentages for each formula were computed.[28]
# Bacillus subtilis [15] = assay: Biofilm inhibition test (spectrophotometric); assay type: cell-based; settings: 24 h, 37 °C, OD vs untreated
# Method: as §2
# Candida albicans [16] = assay: Biofilm inhibition test (spectrophotometric); assay type: cell-based; settings: 24 h, 37 °C, OD vs untreated
# Method: as §2
# Candida glabrata [17] = assay: Biofilm inhibition test (spectrophotometric); assay type: cell-based; settings: 24 h, 37 °C, OD vs untreated
# Method: as §2
# Candida krusei [18] = assay: Biofilm inhibition test (spectrophotometric); assay type: cell-based; settings: 24 h, 37 °C, OD vs untreated
# Method: as §2
# Candida parapsilosis [19] = assay: Biofilm inhibition test (spectrophotometric); assay type: cell-based; settings: 24 h, 37 °C, OD vs untreated
# Method: as §2
# Escherichia coli [20] = assay: Biofilm inhibition test (spectrophotometric); assay type: cell-based; settings: 24 h, 37 °C, OD vs untreated
# Method: as §2
# Klebsiella pneumoniae [21] = assay: Biofilm inhibition test (spectrophotometric); assay type: cell-based; settings: 24 h, 37 °C, OD vs untreated
# Method: as §2
# Pseudomonas aeruginosa [22] = assay: Biofilm inhibition test (spectrophotometric); assay type: cell-based; settings: 24 h, 37 °C, OD vs untreated
# Method: as §2
# Salmonella paratyphi [23] = assay: Biofilm inhibition test (spectrophotometric); assay type: cell-based; settings: 24 h, 37 °C, OD vs untreated
# Method: as §2
# Staphylococcus aureus [24] = assay: Biofilm inhibition test (spectrophotometric); assay type: cell-based; settings: 24 h, 37 °C, OD vs untreated
# Method: as §2
# [25] = test system: Staphylococcus epidermidis; assay: Biofilm inhibition test (spectrophotometric); assay type: cell-based; settings: 24 h, 37 °C, OD vs untreated
# Method: as §2
# Wi-38 cells = assay: MTT cytotoxicity assay, normal cells; assay type: cell-based; settings: WI-38, normal human lung fibroblast cells, 48 h
# Description: (§3) MTT assay: the normal cell line (Wi-38), colon cancer (Caco-2), lung cancer (A549), and breast cancer (MDA) cell lines were sourced from ATCC, USA. All different cell lines were cultivated and preserved in DMEM medium (SERANA, Germany), accompanied by 10% FBS (Gibco, USA) and 1% Pen/Strep solution (Lonza, USA). The newly prepared derivatives at various doses were considered for their anticancer activity and their safety on normal cells, applying MTT (3-[4, 5-dimethylthiazol]-2, 5-diphenyltetrazolium bromide) methods.[22] At first, all normal and cancer cell lines (1.0 ×10^4) were inoculated in 4 antiseptic 96-well tissue culture microplates and incubated for 24 h in a CO2 incubator. After cell attachments, the prepared derivatives were added to both normal Wi-38 cells at diverse concentrations of (6.25–200 μg mL^−1, 2-fold) and cancer cells at different concentrations of (3.125–100 μg mL^−1, 2-fold) in triplicate and incubated for another 48 h at 37 °C in a CO2 incubator with an adjusted concentration of 5%. After that, the treated cells were cleaned three times with PBS to remove debris and dead cells. Next, 200 μL of 0.5 mg mL^−1 MTT dye solution in PBS was mixed in each well, and the cells were further kept for 3 h at 37 °C in a 5% CO2 incubator. After that, MTT was removed and 200 μL of DMSO was added to each well. The optical density (OD) was recorded at 570 nm via a microplate reader (B.M.G. LabTech, Germany). Basic cells (untreated) were utilized as negative control cells, and 5-fluorouracil (5-FU) was included as a standard chemotherapy drug. The qualified cell viability (%) was evaluated as in equation (eqn (1)):1 Relative cell viability (%) = […] A1 is the OD of the examined derivative, A0 is the OD of the standard, and AU is the OD of the untreated cells.
# (§4) Anticancer activity assay: the anticancer effect of each derivative was assessed by evaluating the half-maximal inhibitory concentration (IC50) value via the GraphPad Prism 7.0 software. However, SI (selective index) values of each derivative were estimated by splitting the IC50 value of healthy cells by the IC50 value of malignant cells, as previously reported.[23] The effects of the created derivatives on the morphology of MDA cells were evaluated at IC50 doses and captured by phase-contrast microscopy (Olympus, Germany) in comparison to untreated control cells.
# Caco-2 cells = assay: MTT anticancer assay; assay type: cell-based; settings: for IC50: Homo sapiens, Caco-2, colon carcinoma cells, MTT, 48 h; for SI Caco-2: IC50 Wi-38 / IC50 Caco-2
# Description: as §3, §4
# A549 cells [26] = assay: MTT anticancer assay; assay type: cell-based, human; settings: Homo sapiens, A549, lung carcinoma cells, 48 h
# Description: as §3, §4
# MDA cells = assay: MTT anticancer assay; assay type: cell-based, human; settings: Homo sapiens, Breast carcinoma cell, 48 h
# Description: as §3, §4
# A549 cells [27] = assay: Wound healing scratch (anti-migration) assay; assay type: cell-based, human; settings: IC50 doses, 48 h
# Method: To assess the anti-migration inhibition capability of newly synthesized derivatives, a wound healing technique was employed. A549 cells were planted in 12-well plates and kept alive at 37 °C until they achieved 80–90% fluency. The cell monolayers were smashed with a sterile tip and exposed to the prepared derivatives at IC50 doses. At 0 and 48 h of treatment, the wound closure area was captured and calculated by imaging analysis with the Cell-Sens software (Olympus, Japan).
# all applied pathogens = assay: Agar-well diffusion of synthesized compounds, whole panel; assay type: cell-based
# Description: The antimicrobial activity of the prepared compounds was estimated through an agar-well diffusion method as adapted from the modified Kirby–Bauer protocol.[24] In this test, microbial pathogens were applied, including Staphylococcus aureus ATCC 25923 (S. aureus), Streptococcus mutans ATCC 25175 (S. mutans), Bacillus cereus ATCC 19637 (B. cereus), Bacillus aureus ATCC 25923 (B. aureus), Bacillus epidermidis ATCC 14990 (B. epidermidis), and Bacillus subtilis ATCC 11774 (B. subtilis) as Gram-positive bacteria, and Pseudomonas aeruginosa ATCC 27853 (P. aeruginosa), Klebsiella pneumonia ATCC 13883 (K. pneumonia), and Salmonella typhimurium ATCC 14028 (S. typhimurium), Salmonella pneumoniae ATCC 10031(S. pneumoniae), Escherichia coli ATCC 10536 (E. coli), and Salmonella paratyphi ATCC 9150 (S. paratyphi) as Gram-negative bacteria. Additionally, Candida albicans (ATCC 10231), Candida krusei ATCC 6258 (C. krusei), Candida glabrata ATCC 66032 (C. glabrata), andCandida parapsilosis ATCC 22019 (C. parapsilosis) were applied as models of unicellular fungi. The pre-inoculation cultures of the pathogens were prepared on Muller–Hinton broth and cultivated for 24 h at 37 °C. The agar-well test was prepared on Muller–Hinton agar with 100 μL of each pathogen pre-culture (0.5 McFarland conc.) and uniformly distributed on the plate surface. Under aseptic conditions, six wells were created on the agar surface using a sterile corkborer (9 mm). To each well, 100 μL of the prepared compound (10 mg mL^−1) was separately inserted into each plate. All plates were incubated for 24 h at 37 °C; the established inhibition zones (Halo-zones) surrounding the wells indicated positive antimicrobial activity and were stated as the radius of the inhibition zone (mm).
compound,measurement,setting,value
O=C(Nc1ccc(Nc2ccnc3cc(Cl)ccc23)cc1)c1cc2ccccc2oc1=O [Compound C2],Inhibition zone diameters,Bacillus cereus [1],0 mm
same,Inhibition zone diameters,Bacillus subtilis [2],0 mm
same,Inhibition zone diameters,Candida albicans [3],0 mm
same,Inhibition zone diameters,Candida glabrata [4],0 mm
same,Inhibition zone diameters,Candida krusei [5],0 mm
same,Inhibition zone diameters,Candida parapsilosis [6],0 mm
same,Inhibition zone diameters,Escherichia coli [7],0 mm
same,Inhibition zone diameters,Klebsiella pneumoniae [8],0 mm
same,Inhibition zone diameters,Pseudomonas aeruginosa [9],0 mm
same,Inhibition zone diameters,Salmonella paratyphi [10],0 mm
same,Inhibition zone diameters,Staphylococcus aureus [11],0 mm
same,Inhibition zone diameters,[12],0 mm
same,Antimicrobial effect,[13],neither C1 nor C2 controls have any effect
same,Biofilm reduction,Bacillus cereus [14],10.32 ± 0.19^i %
same,Biofilm reduction,Bacillus subtilis [15],8.41 ± 0.31^i %
same,Biofilm reduction,Candida albicans [16],3.21 ± 0.99^i %
same,Biofilm reduction,Candida glabrata [17],6.48 ± 1.87^i %
same,Biofilm reduction,Candida krusei [18],5.24 ± 1.22^i %
same,Biofilm reduction,Candida parapsilosis [19],3.87 ± 0.14^i %
same,Biofilm reduction,Escherichia coli [20],8.31 ± 0.75^i %
same,Biofilm reduction,Klebsiella pneumoniae [21],2.03 ± 0.77^i %
same,Biofilm reduction,Pseudomonas aeruginosa [22],3.65 ± 0.47^i %
same,Biofilm reduction,Salmonella paratyphi [23],7.24 ± 0.38^i %
same,Biofilm reduction,Staphylococcus aureus [24],11.31 ± 0.17^i %
same,Biofilm reduction,[25],8.29 ± 0.19^i %
"O=c1[nH]cc(F)c(=O)[nH]1 [Compound 5-FU, 5-fluorouracil, reference compound]",IC50,Wi-38 cells,5.23 ± 0.18 µg/mL
same,IC50,Caco-2 cells,6.13 ± 0.28 µg/mL
same,SI Caco-2,Caco-2 cells,0.85 ± 0.03
same,IC50,A549 cells [26],5.74 ± 0.24 µg/mL
same,IC50,MDA cells,5.89 ± 0.19 µg/mL
"O=C(Nc1ccc(Nc2c3ccccc3nc3ccccc23)cc1)c1cc2ccccc2oc1=O [Compound B, N-(4-(acridin-9-ylamino)phenyl)-2-oxo-2H-chromene-3-carboxamide]",IC50,Wi-38 cells,126 ± 10.9 µg/mL
same,IC50,Caco-2 cells,4.87 ± 1.69 µg/mL
same,SI Caco-2,Caco-2 cells,25.93 ± 2.25
same,IC50,A549 cells [26],6.98 ± 1.99 µg/mL
same,IC50,MDA cells,4.27 ± 0.46 µg/mL
same,Migration inhibition,A549 cells [27],87.21%
same,Antimicrobial activity,all applied pathogens,no antimicrobial activity
